{
  "source": "paper PMC4871610",
  "about": "(Cell, 2015)",
  "key": {"CutC (choline TMA lyase) [1]": {"biological_target": "T1, CutC (choline TMA lyase) (Proteus mirabilis, UniProt B4EYG1)", "T1 sequence (B4EYG1 1-1142)": "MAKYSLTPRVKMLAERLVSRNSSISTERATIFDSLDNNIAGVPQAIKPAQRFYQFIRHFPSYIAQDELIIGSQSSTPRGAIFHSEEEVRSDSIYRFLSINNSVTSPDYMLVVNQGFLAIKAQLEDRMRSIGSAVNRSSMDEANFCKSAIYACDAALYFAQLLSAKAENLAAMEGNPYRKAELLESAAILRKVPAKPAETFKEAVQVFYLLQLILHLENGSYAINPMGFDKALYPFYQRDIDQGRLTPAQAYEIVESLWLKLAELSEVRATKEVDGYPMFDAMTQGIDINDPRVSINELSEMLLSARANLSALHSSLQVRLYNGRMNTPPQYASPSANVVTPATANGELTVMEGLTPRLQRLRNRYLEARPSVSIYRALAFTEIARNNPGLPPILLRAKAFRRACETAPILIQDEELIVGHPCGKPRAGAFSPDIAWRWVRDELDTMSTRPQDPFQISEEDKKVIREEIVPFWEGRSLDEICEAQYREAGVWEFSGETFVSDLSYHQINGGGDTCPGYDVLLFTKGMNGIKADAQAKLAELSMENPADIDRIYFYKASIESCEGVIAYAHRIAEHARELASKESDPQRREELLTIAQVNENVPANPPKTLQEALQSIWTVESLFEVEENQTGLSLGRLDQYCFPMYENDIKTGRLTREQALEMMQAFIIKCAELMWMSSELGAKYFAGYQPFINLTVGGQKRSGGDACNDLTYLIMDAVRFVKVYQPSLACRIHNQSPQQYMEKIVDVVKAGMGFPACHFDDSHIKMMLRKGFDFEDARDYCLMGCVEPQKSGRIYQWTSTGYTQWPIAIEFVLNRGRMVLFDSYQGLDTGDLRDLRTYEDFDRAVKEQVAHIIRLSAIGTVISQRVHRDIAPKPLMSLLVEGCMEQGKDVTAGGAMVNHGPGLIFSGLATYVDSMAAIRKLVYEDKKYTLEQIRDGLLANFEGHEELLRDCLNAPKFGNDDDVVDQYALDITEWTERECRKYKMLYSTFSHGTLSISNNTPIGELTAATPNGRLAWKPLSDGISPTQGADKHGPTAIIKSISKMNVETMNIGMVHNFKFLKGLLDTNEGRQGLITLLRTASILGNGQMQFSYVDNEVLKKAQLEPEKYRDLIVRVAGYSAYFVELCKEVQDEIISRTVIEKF", "T1 sequence (B4EYG0 1-316 partner)": "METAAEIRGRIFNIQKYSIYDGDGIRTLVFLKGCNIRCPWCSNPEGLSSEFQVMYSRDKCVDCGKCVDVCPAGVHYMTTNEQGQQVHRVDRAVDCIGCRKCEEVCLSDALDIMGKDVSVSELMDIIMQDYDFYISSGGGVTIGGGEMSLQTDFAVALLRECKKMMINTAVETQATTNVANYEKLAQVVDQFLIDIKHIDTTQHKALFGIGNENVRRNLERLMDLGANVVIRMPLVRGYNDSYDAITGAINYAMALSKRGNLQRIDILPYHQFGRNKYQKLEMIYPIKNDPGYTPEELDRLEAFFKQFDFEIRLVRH", "assay": "anaerobic d9-TMA production with purified CutC and CutD, LC/MS/MS", "format": "biochemical"}, "CutC (choline TMA lyase) [2]": {"biological_target": "T1, CutC (choline TMA lyase)", "assay": "d9-TMA production from d9-choline in cutC/D-transformed E. coli lysate", "format": "cell-based"}, "CutC (choline TMA lyase) [3]": {"biological_target": "T1, CutC (choline TMA lyase)", "assay": "d9-TMA production from d9-choline in cutC/D-transformed E. coli lysate, LC/MS/MS", "format": "biochemical"}, "YeaW": {"biological_target": "T2, YeaW (Escherichia coli, UniProt P0ABR7)", "T2 sequence (P0ABR7 1-374)": "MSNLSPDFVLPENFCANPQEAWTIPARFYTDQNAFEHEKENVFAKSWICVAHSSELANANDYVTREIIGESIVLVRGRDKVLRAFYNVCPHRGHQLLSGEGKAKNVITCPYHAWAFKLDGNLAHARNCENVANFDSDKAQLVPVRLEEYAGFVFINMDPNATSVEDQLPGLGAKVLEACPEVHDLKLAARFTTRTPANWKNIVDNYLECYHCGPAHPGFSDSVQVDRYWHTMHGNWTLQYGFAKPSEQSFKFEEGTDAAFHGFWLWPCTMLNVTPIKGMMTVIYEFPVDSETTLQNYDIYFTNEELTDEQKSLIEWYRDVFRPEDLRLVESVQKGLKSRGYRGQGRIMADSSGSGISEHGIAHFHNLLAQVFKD", "assay": "d9-TMA production by purified YeaW/X, LC/MS/MS", "format": "biochemical"}, "CutC (choline TMA lyase) [4]": {"biological_target": "T1, CutC (choline TMA lyase)", "assay": "d9-TMA production by purified CutC and CutD, LC/MS/MS", "format": "biochemical"}},
  "note": "pIC50: −log10 of the molar value.",
  "data": [
    {"smiles": "CC(C)(C)CCO", "note": "[DMB, 3,3-dimethyl-1-butanol]", "values": [
      {"measurement": "pIC50", "setting": "CutC (choline TMA lyase) [1]", "result": "~5.00"}
    ]},
    {"smiles": "C[P+](C)(C)CCO", "note": "[P-choline, (2-Hydroxyethyl)(trimethyl)phosphonium]", "values": [
      {"measurement": "d9-TMA production from d9-choline in cutC/D-transformed E. coli lysate (activity)", "setting": "CutC (choline TMA lyase) [2]", "result": "phosphonium analogue of choline (P-choline) showed a unique effect by augmenting cutC/D choline TMA lyase activity"}
    ]},
    {"smiles": "C[Si](C)(C)CCO", "note": "[TMSi-ETOH, 2-(trimethylsilyl)ethanol]", "values": [
      {"measurement": "pIC50", "setting": "CutC (choline TMA lyase) [3]", "result": "~5.00"}
    ]},
    {"smiles": "C[N+](C)(C)CC(O)CC(=O)[O-]", "note": "(centres unmarked) [carnitine]", "values": [
      {"measurement": "d9-TMA production by purified YeaW/X, LC/MS/MS", "setting": "YeaW", "result": "Purified YeaW/X showed enzymatic cleavage of d9-carnitine"}
    ]},
    {"smiles": "C[N+](C)(C)CCO", "note": "[choline]", "values": [
      {"measurement": "d9-TMA production by purified CutC and CutD, LC/MS/MS", "setting": "CutC (choline TMA lyase) [4]", "result": "both purified polypeptides showed dose-dependent inhibition in TMA production from either choline or GPC substrates"}
    ]}
  ]
}
